In paper PMC6658769, “First-Time-in-Human Study and Prediction of Early Bactericidal Activity for GSK3036656, a Potent Leucyl-tRNA Synthetase Inhibitor for Tuberculosis Treatment” (Antimicrobial Agents and Chemotherapy, 2019):
Like-named read-outs stand apart in the source and are kept apart here.

Key:
[1] = human, in vivo
M. tuberculosis = conditions: cited from earlier work

NC[C@@H](O)c1c(Cl)ccc(OCCO)c1O [GSK3635633]
% dose in pooled urine [1]: 6 % dose

COc1nc2ccc(Br)cc2cc1[C@@H](c1ccccc1)[C@@](O)(CCN(C)C)c1cccc2ccccc12 [bedaquiline]
reported average EBA0–14 (M. tuberculosis; loading doses of 700 mg on day 1 and 500 mg on day 2 and then 400 mg): 0.061

C[C@]1(COc2ccc(N3CCC(Oc4ccc(OC(F)(F)F)cc4)CC3)cc2)Cn2cc([N+](=O)[O-])nc2O1 [delamanid]
reported average EBA0–14 (M. tuberculosis; 300 mg): 0.065
